Experimental findings from patent publication US9365541B2, “Compounds for use in the treatment of parasitic diseases” (IRBM—SCIENCE PARK S.P.A., priority 2012, dated 2016) are described below.

For one test, the target named is T1, human HDAC1 (Homo sapiens, UniProt Q13547).
T1 construct: made in house; host or cells: HeLa (ATCC CCL-2), mammalian cells
Briefly: Homo sapiens HDAC1 inhibition assay (Fluor-de-Lys, enzymatic). In kind it is biochemical. To be noted: human HDAC enzymatic assay; read-out: hHDAC IC50. Put shortly:
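Fluorogenic deacetylation read-out: trypsin developer, supplemented with 2 μM final TSA as stop, releases fluorophore from deacetylated substrate.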

The subject of test [1] is Plasmodium falciparum 3D7. The test can be described thus: P. falciparum growth inhibition assay (Pf-LDH). To be noted: Plasmodium falciparum, Erythrocyte; P. falciparum 3D7 infected erythrocytes, 72 h incubation, PfLDH readout. In kind it is cell-based. Put shortly: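 Compounds were tested against 72 h cultures of the 3D7 strain (0.25% parasitemia, 2% hematocrit, 37° C, low-oxygen gas). Parasite growth was quantified as lactate dehydrogenase activity via NBT reduction, absorbance 650 nm, after freezing and thawing.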

T1 sequence (Q13547 whole entry): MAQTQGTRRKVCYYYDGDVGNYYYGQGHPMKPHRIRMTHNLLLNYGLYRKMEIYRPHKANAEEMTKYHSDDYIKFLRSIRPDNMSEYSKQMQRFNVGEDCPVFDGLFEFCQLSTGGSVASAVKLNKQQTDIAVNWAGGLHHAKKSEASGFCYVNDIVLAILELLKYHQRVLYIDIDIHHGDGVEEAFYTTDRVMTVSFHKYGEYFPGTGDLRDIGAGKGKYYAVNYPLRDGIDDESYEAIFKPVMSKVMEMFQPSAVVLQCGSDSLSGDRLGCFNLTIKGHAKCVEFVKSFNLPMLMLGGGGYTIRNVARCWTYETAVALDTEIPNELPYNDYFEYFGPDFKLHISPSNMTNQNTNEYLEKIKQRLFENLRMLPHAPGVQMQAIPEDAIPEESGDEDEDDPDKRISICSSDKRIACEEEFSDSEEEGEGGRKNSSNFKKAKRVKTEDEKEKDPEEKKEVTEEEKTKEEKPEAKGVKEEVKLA

Take `CNC(=O)CCCCC[C@H](NC(=O)c1cnsc1)c1ncc(-c2ccc3ccncc3c2)[nH]1` [Entry 46, (S)-N-(1-(5-(isoquinolin-7-yl)-1H-imidazol-2-yl)-7-(methylamino)-7-oxo-heptyl)isothiazole-4-carboxamide]: the IC50 on human HDAC1 was less than 1 µM. For the same molecule, the EC50 in test [1] was less than 1 µM.

For `CNC(=O)CCCCC[C@H](NC(=O)C1(C)CCOCC1)c1ncc(-c2cc3ccccc3nc2OC)[nH]1` [Entry 133, (S)-N-(1-(5-(2-methoxyquinolin-3-yl)-1H-imidazol-2-yl)-7-(methylamino)-7-oxoheptyl)-4-methyltetrahydro-2H-pyran-4-carboxamide], the IC50 on human HDAC1 fell in the range of 1 to 5 µM. In addition, the EC50 in test [1] lay in the range of 1 to 5 µM.

Turning to `CNC(=O)CCCCC[C@H](NC(=O)C1CCCN(C)C1)c1ncc(-c2cc3ccccc3nc2OC)[nH]1` (stereo partly drawn) [Entry 33, N-((S)-1-(5-(2-methoxyquinolin-3-yl)-1H-imidazol-2-yl)-7-(methylamino)-7-oxoheptyl)-1-methylpiperidine-3-carboxamide], the IC50 on human HDAC1 is less than 1 µM. In addition, the EC50 in test [1] lay in the range of 1 to 5 µM.

Regarding `CNC(=O)CCCCC[C@H](NC(=O)CCN1CCCCC1)c1ncc(-c2cc3ccccc3nc2OC)[nH]1` [Entry 99], the IC50 at human HDAC1 is less than 1 µM. This molecule gave an EC50 in test [1] of 1 to 5 µM.

Take `CNC(=O)CCCCC[C@H](NC(=O)c1cccc(-n2cccn2)c1)c1ncc(-c2cc3ccccc3nc2OC)[nH]1` [Entry 156, (S)-N-(1-(5-(2-methoxyquinolin-3-yl)-1H-imidazol-2-yl)-7-(methylamino)-7-oxoheptyl)-3-(1H-pyrazol-1-yl)benzamide]: the IC50 on human HDAC1 is greater than 5 µM. The molecule further had an EC50 in test [1] of 1 to 5 µM.

As for `CNC(=O)CCCCC[C@H](NC(=O)CCc1cnn(C)c1)c1ncc(-c2ccc3ccccc3c2)[nH]1` [Entry 199, (S)-N-methyl-7-(3-(1-methyl-1H-pyrazol-4-yl)propanamido)-7-(5-(naphthalen-2-yl)-1H-imidazol-2-yl)heptanamide], the IC50 on human HDAC1 is less than 1 µM. The EC50 in test [1] is 1 to 5 µM.

On to `CNC(=O)CCCCC[C@H](NC(=O)c1cnsc1)c1ncc(-c2ccc3[nH]ncc3c2)[nH]1` [Entry 34, (S)-N-(1-(5-(1H-indazol-5-yl)-1H-imidazol-2-yl)-7-(methylamino)-7-oxoheptyl)isothiazole-4-carboxamide], for which the IC50 on human HDAC1 lay within 1 to 5 µM. Moreover, the EC50 in test [1] was 1 to 5 µM.

Take `CNC(=O)CCCCC[C@H](NC(=O)c1cncs1)c1ncc(-c2ccc3[nH]nnc3c2)[nH]1` [Entry 112, (S)-N-(1-(5-(1H-benzo[d][1,2,3]triazol-5-yl)-1H-imidazol-2-yl)-7-(methylamino)-7-oxoheptyl)thiazole-5-carboxamide]: on human HDAC1, the half-inhibitory concentration (IC50) was greater than 5 µM. For the same molecule, the EC50 in test [1] was greater than 5 µM.

In the case of `CNC(=O)CCCCC[C@H](NC(=O)c1cncs1)c1ncc(-c2ccc3cnccc3c2)[nH]1` [Entry 138, (S)-N-(1-(5-(isoquinolin-6-yl)-1H-imidazol-2-yl)-7-(methylamino)-7-oxoheptyl)thiazole-5-carboxamide], the IC50 on human HDAC1 was in the range of 1 to 5 µM. The same molecule returned an EC50 in test [1] of less than 1 µM.

As for `CNC(=O)CCCCC[C@H](NC(=O)c1cnc(CN2CCCC2)s1)c1ncc(-c2ccc(-c3ccn(C)n3)cc2)[nH]1` [Entry 124, (S)-N-(1-(5-(4-(1-methyl-1H-pyrazol-3-yl)phenyl)-1H-imidazol-2-yl)-7-(methylamino)-7-oxoheptyl)-2-(pyrrolidin-1-ylmethyl)thiazole-5-carboxamide], the IC50 on human HDAC1 lay within 1 to 5 µM. In addition, the EC50 in test [1] is less than 1 µM.

For the molecule `CNC(=O)CCCCC[C@H](NC(=O)c1cncs1)c1ncc(-c2ccc(-c3ccn(C)n3)cc2)[nH]1` [Entry 158], on human HDAC1, the IC50 lay in the range of 1 to 5 µM. Moreover, the EC50 in test [1] was less than 1 µM.

For `CNC(=O)CCCCC[C@H](NC(=O)Cc1cnc2ncnn2c1)c1ncc(-c2ccc3ccccc3c2)[nH]1` [Entry 22, (S)-7-(2-([1,2,4]triazolo[1,5-a]pyrimidin-6-yl)acetamido)-N-methyl-7-(5-(naphthalen-2-yl)-1H-imidazol-2-yl)heptanamide], the IC50 on human HDAC1 is less than 1 µM. For the same molecule, the half-maximal effective concentration (EC50) in test [1] was less than 1 µM.

Turning to `CNC(=O)CCCCC[C@H](NC(=O)c1cccc2nc(C)c(C)nc12)c1ncc(-c2ccc3ccccc3c2)[nH]1` [Entry 13, (S)-2,3-dimethyl-N-(7-(methylamino)-1-(5-(naphthalen-2-yl)-1H-imidazol-2-yl)-7-oxo-heptyl)quinoxaline-5-carboxamide], the IC50 at human HDAC1 was 1 to 5 µM. This molecule came in with an EC50 in test [1] of 1 to 5 µM.

Take `CNC(=O)CCCCC[C@H](NC(=O)c1ccnn1C)c1ncc(-c2ccc(-c3ccn(C)n3)cc2)[nH]1` [Entry 213, (S)-1-methyl-N-(1-(5-(4-(1-methyl-1H-pyrazol-3-yl)phenyl)-1H-imidazol-2-yl)-7-(methylamino)-7-oxoheptyl)-1H-pyrazole-5-carboxamide]: the IC50 at human HDAC1 was greater than 5 µM. This molecule also yielded an EC50 in test [1] of 1 to 5 µM.

For `CNC(=O)CCCCC[C@H](NC(=O)c1cncs1)c1ncc(-c2ccc(Cl)c(Cl)c2)[nH]1` [Entry 129, (S)-N-(1-(5-(3,4-dichlorophenyl)-1H-imidazol-2-yl)-7-(methylamino)-7-oxoheptyl)thiazole-5-carboxamide], the IC50 at human HDAC1 is greater than 5 µM. In test [1], this molecule had an EC50 greater than 5 µM.

For the molecule `CNC(=O)CCCCC[C@H](NC(=O)c1cncs1)c1ncc(-c2ccc3cc(OC)ncc3c2)[nH]1` [Entry 105, (S)-N-(1-(5-(3-methoxyisoquinolin-7-yl)-1H-imidazol-2-yl)-7-(methylamino)-7-oxoheptyl)thiazole-5-carboxamide], the IC50 on human HDAC1 was less than 1 µM. Also, in test [1], the EC50 is less than 1 µM.

In the case of `CNC(=O)CCCCC[C@H](NC(=O)c1cccc(-n2nc(C)cc2C)c1)c1ncc(-c2ccc3ccccc3c2)[nH]1` [Entry 42, (S)-3-(3,5-dimethyl-1H-pyrazol-1-yl)-N-(7-(methylamino)-1-(5-(naphthalen-2-yl)-1H-imidazol-2-yl)-7-oxo-heptyl)benzamide], the IC50 at human HDAC1 is 1 to 5 µM. The EC50 in test [1] is 1 to 5 µM.

Turning to `CNC(=O)CCCCC[C@H](NC(=O)Cc1c(C)[nH]c2ccc(OC)cc12)c1ncc(-c2ccc3ccccc3c2)[nH]1` [Entry 75, (S)-7-(2-(5-methoxy-2-methyl-1H-indol-3-yl)acetamido)-N-methyl-7-(5-(naphthalen-2-yl)-1H-imidazol-2-yl)heptanamide], the IC50 at human HDAC1 is less than 1 µM. Further, the EC50 in test [1] was less than 1 µM.

Consider `CNC(=O)CCCCC[C@H](NC(=O)CCc1cnn(C)c1)c1ncc(-c2cc3ccccc3nc2OC)[nH]1` [Entry 134], for which the IC50 on human HDAC1 was greater than 5 µM. This molecule returned a half-maximal effective concentration (EC50) in test [1] of 1 to 5 µM.

With `CNC(=O)CCCCC[C@H](NC(=O)c1cncs1)c1ncc(-c2ccc(-c3ccn[nH]3)cc2)[nH]1` [Entry 221, (S)-N-(1-(5-(4-(1H-pyrazol-5-yl)phenyl)-1H-imidazol-2-yl)-7-(methylamino)-7-oxoheptyl)thiazole-5-carboxamide], the IC50 on human HDAC1 was 1 to 5 µM. The same molecule registered an EC50 in test [1] of less than 1 µM.

For the molecule `CNC(=O)CCCCC[C@H](NC(=O)c1cncs1)c1ncc(-c2ccc(C#N)cc2)[nH]1` [Entry 52, (S)-N-(1-(5-(4-cyanophenyl)-1H-imidazol-2-yl)-7-(methylamino)-7-oxoheptyl)thiazole-5-carboxamide], the IC50 at human HDAC1 lay in the range of 1 to 5 µM. Moreover, the EC50 in test [1] is greater than 5 µM.

One may read the IC50 as the point on the concentration scale where inhibition reaches its midpoint. By EC50 is commonly meant the midpoint of the concentration-response curve.
